Laboratory results published in patent EP4548976A1, “ANTIVIRAL COMPOUNDS AND COMPOSITIONS THEREFROM” (Consejo Superior De Investigaciones Científicas, priority 2023, dated 2025).

Assays:
in vitro = conditions: human
[1] = test system: SARS-CoV-2 stock strain NL/2020; assay: Antiviral activity in A549-ACE2 cells using viral antigen quantitation (SARS-CoV-2 N protein immunofluorescence); format: cell-based; conditions: Severe acute respiratory syndrome coronavirus 2, MOI 0.005, 48 h; for EC50: concentration reducing SARS-CoV-2 infection efficiency by 50% vs vehicle; for EC90: concentration reducing SARS-CoV-2 infection efficiency by 90% vs vehicle

Structure (SMILES)	CC50 (in vitro) [µM]	EC50 [1] [µM]	EC90 [1] [µM]
CC(C)(C)OC(=O)N[C@@H](Cc1c[nH]c2ccccc12)C(C#N)Nc1ccccc1C(=O)N1CCCCCC1 (mixture of isomers) [Example 31, tert-Butyl ((1RS,2S)-1-((2-(azepane-1-carbonyl)phenyl)amino)-1-cyano-3-(1H-indol-3-yl)propan-2-yl)carbamate]	36	8	39
CC(C)(C)OC(=O)N[C@H](Cc1c[nH]c2ccccc12)C(C#N)Nc1ccc(Br)cc1C(=O)c1ccccc1 (mixture of isomers) [Example 26, tert-Butyl ((1RS,2R)-1-((2-benzoyl-4-bromophenyl)amino)-1-cyano-3-(1H-indol-3-yl)propan-2-yl)carbamate]	50	6	28
COC(=O)c1cc(-c2ccc3[nH]ccc3c2)ccc1NC(C#N)[C@H](Cc1c[nH]c2ccccc12)NC(=O)OC(C)(C)C (mixture of isomers) [Example 9, Methyl 2-(((1RS,2S)-2-((tert-butoxycarbonyl)amino)-1-cyano-3-(1H-indol-3-yl)propyl)amino)-5-(1H-indol-5-yl)benzoate]	50	< 0.4	5
COC(=O)c1cc(-c2cc3ccccc3s2)ccc1NC(C#N)[C@H](Cc1c[nH]c2ccccc12)NC(=O)OC(C)(C)C (mixture of isomers) [Example 13, Methyl 5-(benzo[b]thiophen-2-yl)-2-(((1RS,2S)-2-((tert-butoxycarbonyl)amino)-1-cyano-3-(1H-indol-3-yl)propyl)amino)benzoate]	13	1.85	5
COC(=O)c1cc(-c2ccc3[nH]ncc3c2)ccc1NC(C#N)[C@H](Cc1c[nH]c2ccccc12)NC(=O)OC(C)(C)C (mixture of isomers) [Example 16, Methyl 2-(((1RS,2S)-2-((tert-butoxycarbonyl)amino)-1-cyano-3-(1H-indol-3-yl)propyl)amino)-5-(1H-indazol-5-yl)benzoate]	10	6	9
COC(=O)c1cc(-c2ccc(N3CCOCC3)cc2)ccc1NC(C#N)[C@H](Cc1c[nH]c2ccc(-c3ccccc3)cc12)NC(=O)OC(C)(C)C (mixture of isomers) [Example 5, Methyl 4-(((1RS,2S)-2-((tert-butoxycarbonyl)amino)-1-cyano-3-(5-phenyl-1H-indol-3-yl)propyl)amino)-4'-morpholino-[1,1'-biphenyl]-3-carboxylate]	> 50	4	13
COC(=O)c1cc(-c2ccc3ocnc3c2)ccc1NC(C#N)[C@H](Cc1c[nH]c2ccccc12)NC(=O)OC(C)(C)C (mixture of isomers) [Example 24, Methyl 5-(benzo[d]oxazol-5-yl)-2-(((1RS,2S)-2-((tert-butoxycarbonyl)amino)-1-cyano-3-(1H-indol-3-yl)propyl)amino)benzoate]	> 50	6	9
COC(=O)c1cc(-c2ccc(N3CCOCC3)cc2)ccc1NC(C#N)[C@H](Cc1c[nH]c2cccc(-c3ccc(-c4cn(CCCOCCOCCOCCNC(=O)CCC[C@H]5SC[C@H]6NC(=O)N[C@H]65)nn4)cc3)c12)NC(=O)OC(C)(C)C (mixture of isomers) [Example 20, Methyl 4-(((1RS,2S)-2-((tert-butoxycarbonyl)amino)-1-cyano-3-(4-(4-(1-(14-oxo-17-((3aR,4R,6aS)-2-oxohexahydro-1H-thieno[3,4-d]imidazol-4-yl)-4,7,10-trioxa-13-azaheptadecyl)-1H-1,2,3-triazol-4-yl)phenyl)-1H-indol-3-yl)propyl)amino)-4'-morpholino-[1,1'-biphenyl]-3-carboxylate]	> 50	2	50
COC(=O)c1cc(-c2ccc3cc[nH]c3c2)ccc1NC(C#N)[C@H](Cc1c[nH]c2ccccc12)NC(=O)OC(C)(C)C (mixture of isomers) [Example 11, Methyl 2-(((1RS,2S)-2-((tert-butoxycarbonyl)amino)-1-cyano-3-(1H-indol-3-yl)propyl)amino)-5-(1H-indol-6-yl)benzoate]	30	4	8
COC(=O)c1cc(-c2ccnc(N3CCOCC3)c2)ccc1NC(C#N)[C@H](Cc1c[nH]c2ccccc12)NC(=O)OC(C)(C)C (mixture of isomers) [Example 7, Methyl 2-(((1RS,2S)-2-((tert-butoxycarbonyl)amino)-1-cyano-3-(1H-indol-3-yl)propyl)amino)-5-(2-morpholinopyridin-4-yl)benzoate]	> 50	1.1	6
COC(=O)c1cc(-c2ccc3[nH]ccc3c2)ccc1NC(C#N)[C@@H](Cc1c[nH]c2ccccc12)NC(=O)OC(C)(C)C (mixture of isomers) [Example 27, Methyl 2-(((1RS,2R)-2-((tert-butoxycarbonyl)amino)-1-cyano-3-(1H-indol-3-yl)propyl)amino)-5-(1H-indol-5-yl)benzoate]	35	7	9
COC(=O)c1cc(-c2ccc(NC(C)=O)nc2)ccc1NC(C#N)[C@H](Cc1c[nH]c2ccccc12)NC(=O)OC(C)(C)C (mixture of isomers) [Example 29, Methyl 5-(6-acetamidopyridin-3-yl)-2-(((1RS,2S)-2-((tert-butoxycarbonyl)amino)-1-cyano-3-(1H-indol-3-yl)propyl)amino)benzoate]	> 50	3	8
COC(=O)c1cc(-c2c[nH]c3ncccc23)ccc1NC(C#N)[C@H](Cc1c[nH]c2ccccc12)NC(=O)OC(C)(C)C (mixture of isomers) [Example 18, Methyl 2-(((1RS,2S)-2-((tert-butoxycarbonyl)amino)-1-cyano-3-(1H-indol-3-yl)propyl)amino)-5-(1H-pyrrolo[2,3-b]pyridin-3-yl)benzoate]	10	6	9
COC(=O)c1cc(-c2cnn(Cc3ccccc3)c2)ccc1NC(C#N)[C@H](Cc1c[nH]c2ccccc12)NC(=O)OC(C)(C)C (mixture of isomers) [Example 17, Methyl 5-(1-benzyl-1H-pyrazol-4-yl)-2-(((1RS,2S)-2-((tert-butoxycarbonyl)amino)-1-cyano-3-(1H-indol-3-yl)propyl)amino)benzoate]	> 50	1	2
C#Cc1ccc(-c2cccc3[nH]cc(C[C@H](NC(=O)OC(C)(C)C)C(C#N)Nc4ccc(-c5ccc(N6CCOCC6)cc5)cc4C(=O)OC)c23)cc1 (mixture of isomers) [Example 6, Methyl 4-(((1RS,2S)-2-((tert-butoxycarbonyl)amino)-1-cyano-3-(4-(4-ethynylphenyl)-1H-indol-3-yl)propyl)amino)-4'-morpholino-[1,1'-biphenyl]-3-carboxylate]	> 50	8	20
COC(=O)c1cc(-c2ccc(C(=O)N3CCOCC3)cc2)ccc1NC(C#N)[C@H](Cc1c[nH]c2ccccc12)NC(=O)OC(C)(C)C (mixture of isomers) [Example 8, Methyl 4-(((1RS,2S)-2-((tert-butoxycarbonyl)amino)-1-cyano-3-(1H-indol-3-yl)propyl)amino)-4'-(morpholine-4-carbonyl)-[1,1'-biphenyl]-3-carboxylate]	> 50	0.9	2
COC(=O)c1cc(-c2cccc3[nH]ncc23)ccc1NC(C#N)[C@H](Cc1c[nH]c2ccccc12)NC(=O)OC(C)(C)C (mixture of isomers) [Example 30, Methyl 2-(((1RS,2S)-2-((tert-butoxycarbonyl)amino)-1-cyano-3-(1H-indol-3-yl)propyl)amino)-5-(1H-indazol-4-yl)benzoate]	10	1	2
COC(=O)c1cc(C2=CCN(C(=O)OC(C)(C)C)CC2)ccc1NC(C#N)[C@H](Cc1c[nH]c2ccccc12)NC(=O)OC(C)(C)C (mixture of isomers) [Example 14, tert-Butyl 4-(4-(((1RS,2S)-2-((tert-butoxycarbonyl)amino)-1-cyano-3-(1H-indol-3-yl)propyl)amino)-3-(methoxycarbonyl)phenyl)-3,6-dihydropyridine-1(2H)-carboxylate]	> 50	7	16
COC(=O)c1cc(-c2ccc(N3CCOCC3)cc2)ccc1NC(C#N)[C@H](Cc1c[nH]c2c(Br)cccc12)NC(=O)OC(C)(C)C (mixture of isomers) [Example 3, Methyl 4-(((1RS,2S)-3-(7-bromo-1H-indol-3-yl)-2-((tert-butoxycarbonyl)amino)-1-cyanopropyl)amino)-4'-morpholino-[1,1'-biphenyl]-3-carboxylate]	> 50	3.5	8
COC(=O)c1cc(-c2cc3ccccc3o2)ccc1NC(C#N)[C@H](Cc1c[nH]c2ccccc12)NC(=O)OC(C)(C)C (mixture of isomers) [Example 12, Methyl 5-(benzofuran-2-yl)-2-(((1RS,2S)-2-((tert-butoxycarbonyl)amino)-1-cyano-3-(1H-indol-3-yl)propyl)amino)benzoate]	> 50	1.85	5
COC(=O)c1cc(C2=CCCCC2)ccc1NC(C#N)[C@H](Cc1c[nH]c2ccccc12)NC(=O)OC(C)(C)C (mixture of isomers) [Example 22, Methyl 4-(((1RS,2S)-2-((tert-butoxycarbonyl)amino)-1-cyano-3-(1H-indol-3-yl)propyl)amino)-2',3',4',5'-tetrahydro-[1,1'-biphenyl]-3-carboxylate]	32	6	9
COC(=O)c1cc(-c2ccc(N3CCOCC3)cc2)ccc1NC(C#N)[C@H](Cc1c[nH]c2cccc(Br)c12)NC(=O)OC(C)(C)C (mixture of isomers) [Example 4, Methyl 4-(((1RS,2S)-3-(4-bromo-1H-indol-3-yl)-2-((tert-butoxycarbonyl)amino)-1-cyanopropyl)amino)-4'-morpholino-[1,1'-biphenyl]-3-carboxylate]	> 50	2	7.5
